Data taken from BindingDB's records for doi:10.1016/j.bmc.2015.03.045 (Chungnam National University, 2015).

Experiment: Inhibition of mouse IL5-mediated mouse Y16 cell proliferation after 48 hrs by WST1 assay
Compound `CC(=O)OCc1c(C2CCCCC2)oc2ccc(NC(=O)c3ccccc3)cc2c1=O` has an IC50 of 6.1 µM.
Compound `CC(C)C(=O)OCc1c(C2CCCCC2)oc2ccc(NC(=O)c3ccccc3)cc2c1=O` has an IC50 of 19 µM.
In the case of `CC(C)(C)C(=O)OCc1c(C2CCCCC2)oc2ccc(NC(=O)c3ccccc3)cc2c1=O`, the IC50 is reported as greater than 30 µM.
Work on `CC(=O)OCc1c(-c2ccccc2)oc2ccc(NC(=O)c3ccccc3)cc2c1=O` yielded an IC50 of 16 µM.
Compound `CC(=O)OCc1c(-c2ccc(F)cc2)oc2ccc(NC(=O)c3ccccc3)cc2c1=O` has an IC50 greater than 30 µM.
`CC(=O)OCc1c(C2CCCCC2)oc2ccc(NC(=O)C3CCCCC3)cc2c1=O` showed an IC50 of 20 µM.
Work on `CC(=O)OCc1c(C2CCCCC2)oc2ccc(NCc3ccccc3)cc2c1=O` yielded an IC50 of 19.2 µM.
Work on `CC(=O)OCc1c(C2CCCCC2)oc2ccc(NC(=O)Nc3ccccc3)cc2c1=O` yielded an IC50 greater than 30 µM.
Compound `CC(=O)OCc1c(C2CCCCC2)oc2ccc(NS(=O)(=O)c3ccccc3)cc2c1=O` has an IC50 greater than 30 µM.
`CC(=O)OCc1c(-c2ccccc2)oc2ccc(NC(=O)C3CCCCC3)cc2c1=O` gave an IC50 of 18 µM.
Compound `CC(=O)OCc1c(-c2ccccc2)oc2ccc(NC(=O)c3cnccn3)cc2c1=O` has an IC50 greater than 30 µM.
Work on `O=C(Nc1ccc2oc(C3CCCCC3)c(CO)c(=O)c2c1)c1ccccc1` yielded an IC50 of 10 µM.
For `O=C(Nc1ccc2oc(-c3ccccc3)c(CO)c(=O)c2c1)c1ccccc1`, the IC50 was 22 µM.
With `O=C(Nc1ccc2oc(-c3ccc(F)cc3)c(CO)c(=O)c2c1)c1ccccc1` the IC50 was greater than 30 µM.
In the case of `O=C(Nc1ccc2oc(C3CCCCC3)c(CO)c(=O)c2c1)C1CCCCC1`, the IC50 is reported as greater than 30 µM.
For `O=C(Nc1ccc2oc(-c3ccccc3)c(CO)c(=O)c2c1)C1CCCCC1`, the IC50 was greater than 30 µM.
In the case of `O=C(Nc1ccc2oc(-c3ccccc3)c(CO)c(=O)c2c1)c1cnccn1`, the IC50 is reported as greater than 30 µM.
